This test relates to P388. Kind of test: Antitumor activity against mouse P388 cells. The test is classed as functional, cell-based.

Structures are written as SMILES. The source made the active and inactive calls. No cut-off for these calls is given here.

As for `COc1cc(O)c2c(O[C@@H]3O[C@H](CO)[C@@H](O)[C@H](O)[C@H]3O)c3c(c4c2c1[C@@]1(C4)C(C)=CCCC1(C)C)[C@H](O)[C@@]1(O)CC(O)=C(C(N)=O)C(=O)[C@@]1(O)C3=O`, the result was inactive.

Values taken from ChEMBL document CHEMBL1151390, “Microbial Transformations of Natural Antitumor Agents. 20. Glucosylation of Viridi-catumtoxin” (J Nat Prod, 1982).
